Results as given in patent US20220187282A1, “CARDIOMYOCYTE PROLIFERATION” (The Council of the Queensland Institute of Medical Research, priority 2019, published 2022).

Legend:
[1] = tested on: mature hCOs; assay: mature hCO, cardiomyocyte number, hCO size, bi-nucleation, cardiomyocyte size; format: cell-based, human; conditions: for cardiomyocyte number / bi-nucleation / hCO size (α-actinin area): 3 μM compound 3 or 1 μM compound 65; for bi-nucleation: 4 days; for hCO size (α-actinin area): 7 days
Procedure: For more detailed images an Olympus IX81 confocal microscope was used for mounted hCO imaging. For cell cycle analysis experiments 3 random fields of view were imaged and manually quantified for proliferation. These were added together to calculate the percentage of hPSC-CM proliferation in each hCO.
Cells were dissociated by washing in perfusion buffer at 37° C. (130 mM NaCl, 1 mM MgCl2, 5 mM KCl, 0.5 mM NaH2PO4, 10 mM HEPES, 10 mM Taurine, 10 mM glucose, 10 μM 2,3-butanedione monoxime, pH 7.4). hCO were then incubated in EDTA buffer at 37° C. for 5 min (130 mM NaCl, 5 mM KCl, 0.5 mM NaH2PO4, 10 mM HEPES, 10 mM Taurine, 10 mM glucose, 5 mM EDTA, 10 μM 2,3-butanedione monoxime, pH 7.4). hCO were washed in perfusion buffer and then incubated in perfusion buffer plus 1 mg/ml collagenase B (Roche) for 15 min at 37° C. on a shaker at 500 rpm. Equivolume 0.25% trypsin-EDTA (ThermoFisher) was then added and the hCOs were incubated for 10 min at 37° C. on a shaker at 500 rpm. Perfusion buffer with 5% FBS was then added and the single cells pelleted by centrifuging at 1000×g for 3 min. The cells were then resuspended in 1% para-formaldehyde and incubated for 5 min at room temperature. hCO were then centrifuged at 1000×g for 3 min, paraformaldehyde removed, suspended in PBS and counted using a haemocytometer.
Hits were next validated in mature hCOs using a targeted concentration range based on their active concentrations in the initial immature hCO screen (FIG. 3A). Proliferation markers were quantified using high magnification confocal imaging as we found flow cytometry to be inaccurate in hCO (data not shown). Compounds 3, 63 and 65 had no impact on contractile force (FIG. 3B) at concentrations of 3 μM, 0.3 μM and 1 μM, respectively. […] The effects of both compound 3 and compound 65 were reversible, with proliferation ceasing within 5 days of compound withdrawal (FIG. 8B). Therefore, compound 3 (FIG. 3G) and compound 65 (Goldberg et al., 2009) (FIG. 3H) are both capable of inducing bona fide cardiomyocyte proliferation in mature hCOs without adversely affecting contractile properties.

[2] = tested on: NAP1L1 Cys-388, NAP1L4 Cys-383; assay: quantifying prenylated (farnesylated) proteins in hCO proteomics; format: cell-based, human
Procedure: Targeted data extraction to quantify prenylated peptides was performed manually in the Skyline Environment (MacLean et al., 2010) on Andremoda/MaxQuant search results which included the variable modification of farnesylation (cysteine; C15H24; 204.1878) and geranylation (cysteine; […]; 272.2504) with neutral loss. Only peptides with an Andromeda score >100 and a localization probability >0.75% were included in the analysis.
Given that several metabolites of the mevalonate pathway are required for post-translational modifications such as prenylation, we next performed targeted data extraction of our proteomic analysis (Gillet et al., 2012) for the addition of geranylgeranyl or farnesyl groups. We identified key targets of farnesylation, including NAP1L1 at Cys-388, which was also shown to be farnesylated in a prior study (Kho et al., 2004), and NAP1L4 at Cys-383, which we have identified as a novel farnesylated protein (FIG. 15C).

[3] = tested on: adult cardiomyocytes (MLC2v); assay: adult mouse intracardiac injection, BrdU+ cardiomyocytes after fix-dissociation; format: in vivo; conditions: adult mice; for cardiomyocyte DNA synthesis (BrdU+): single dose 10 mg/kg injected into the heart, 3 days
Procedure: 8-week-old male mice were anesthetized with 4% isoflurane (Bayer) with 0.25 L/min oxygen and then maintained with 2% isoflurane. Once, anaesthetised, each mouse received a s.c. buprenorphine injection (0.05 mg/kg). The animals were intubated and ventilated (Minivent, Harvard Apparatus) (tidal volume=250 respiration rate=133 strokes/min). To access the heart, a lateral thoracotomy was performed at the 4th intercostal space. A Hamilton syringe with a 30-gauge needle was used to inject ˜20 ? l of small molecule solution (final concentration 10 mg/kg) into the myocardium. All compounds were emulsified in Kolliphor/PBS solution (20% Kolliphor® HS 15 (w/v) in PBS, pH 7.4) at a concentration of 20 mg/mL. The chest wall was closed using 4-0 silk suture, the skin closed with 6-0 prolene suture and the mouse removed from anaesthesia. Following anaesthesia, mice were supplied with a s.c. injection of buprenorphine (0.05 mg/kg) and carprofen (10 mg/kg) and allowed to recover. Starting from the day of the surgery, mice received daily 5-bromo-2′-deoxyuridine (BrdU) injections (100 mg/kg, i.p.). […]
Cardiomyocytes were the counted, cytospun onto glass slides and stained with BrdU and MLC2v antibodies, relevant secondary antibodies (see Star Methods Table) and Hoechst (1:1000) to quantify proliferating cardiomyocytes. The AlexaFluor 647 was used to stain BrDU to avoid false positive associated with auto-fluorescence inherent in adult cardiomyocytes in blue-green-yellow channels. To quantify proliferation, 5,000 cardiomyocytes per heart were imaged using a Nikon Spinning Disc confocal microscope using a 20× objective.
Finally, we sought to determine whether compounds 3 and 65 could regulate adult cardiomyocyte proliferation in vivo and whether the mevalonate pathway is critical for these effects. […] Following injection, proliferation was assessed using BrdU pulse-chase for 3 days, followed by fix-dissociation of the hearts, enabling preservation and separation of cardiomyocytes (FIG. 7F) and accurate quantification of BrdU positive cardiomyocytes (FIG. 7G). […]

SMILES	cardiomyocyte size, combined with 10 μM simvastatin ([1]; 1 μM, 2 days)	cardiomyocyte number [1]	bi-nucleation [1]	hCO size (α-actinin area) [1]	cardiomyocyte size ([1]; compound 3 or compound 65)	farnesylation of NAP1L1 at Cys-388 [2]	farnesylation of NAP1L4 at Cys-383 [2]	cardiomyocyte DNA synthesis (BrdU+) [3]	cardiomyocyte size with 10 μM simvastatin ([1]; 3 μM compound 3, 2 days)	cardiomyocyte size ([1]; 3 μM, 2 days)	DNA synthesis response with simvastatin ([3]; 10 mg/kg intracardiac plus simvastatin 20 mg/kg s.c. daily)
Cc1cc(Oc2ccnc(Nc3ccc(S(N)(=O)=O)cc3)c2)c(-c2ccccn2)nc1C [compound 65]	increased	increase	without an increase	increase	without an increase	increased	increased	significantly increased	–	–	–
Cc1ccc(NC(=O)c2ccnc(N3CCOCC3)c2)cc1Nc1ccnc(N2CC(C)OC(C)C2)n1 (stereo not drawn) [compound 3]	–	increase	without an increase	increase	without an increase	increased	only increased farnesylation of NAP1L1	significantly increased	without significant changes	decreases	blocked
